Laboratory results taken from US20090247533A1, “Ecteinascidins” (The Board of Trustees of the University of Illinois, priority 1994, published 2009).
≈ marks a conversion by molar mass, not a printed value.

Columns and labels:
[1] = test system: P388 = murine lymphoma cells; assay: Cytotoxicity against P388 cells; assay type: cell-based
[2] = test system: A549 = human lung carcinoma; assay: Cytotoxicity against A549 cells; assay type: cell-based
[3] = test system: HT29 = human colon carcinoma; assay: Cytotoxicity against HT29 cells; assay type: cell-based
[4] = test system: CV-1 = monkey kidney cells; assay: Cytotoxicity against CV-1 cells; assay type: cell-based
[5] = test system: L1210 = murine lymphoma cells; assay: Cytotoxicity against L1210 cells; assay type: cell-based
DNA synthesis = assay: Antimetabolism: DNA synthesis inhibition; assay type: cell-based
RNA synthesis = assay: Antimetabolism: RNA synthesis inhibition; assay type: cell-based
RNA polymerase = assay: Enzyme inhibition: RNA polymerase inhibition; assay type: biochemical
Bacillus subtilis = assay: Antimicrobial activity against Bacillus subtilis (MIC, disc); assay type: cell-based; details: for B.s. MIC: Bacillus subtilis
MEL28 = human melanoma = assay: Cytotoxicity against MEL28 cells; assay type: cell-based
protein synthesis = assay: Antimetabolism: protein synthesis inhibition; assay type: cell-based
DNA polymerase = assay: Enzyme inhibition: DNA polymerase inhibition; assay type: biochemical
[6] = test system: P388 murine leukemia, B16 melanoma, Lewis lung carcinoma, and several human tumor xenograft models in mice; details: human tumor xenografts in mice; cited from earlier work
Stability in solution = assay type: physicochemical; details: giving reddish color

COc1cc2c(cc1O)CCNC21CSC2c3c(OC(C)=O)c(C)c4c(c3C(COC1=O)N1C(O)C3Cc5c(Br)c(C)c(OC)c(O)c5C(C21)N3C=O)OCO4 (centres unmarked) [N—CHO, 15-Br (18)]
P388 IC50 [1]: 50 ng/mL | A549 IC50 [2]: 200 ng/mL | HT29 IC50 [3]: 200 ng/mL | CV-1 IC50 [4]: 250 ng/mL

COc1cc2c(cc1O)CCNC21C[S+]([O-])C2c3c(OC(C)=O)c(C)c4c(c3C(COC1=O)N1C(O)C3Cc5cc(C)c(OC)c(O)c5C(N3)C21)OCO4 (centres unmarked) [Et 745B, Ecteinascidin 745B]
L1210 IC50 [5]: 25 ng/mL | P388 IC50 [1]: 5.0 ng/mL | A549 IC50 [2]: 10 ng/mL | HT29 IC50 [3]: 10 ng/mL | CV-1 IC50 [4]: 25 ng/mL | DNA (DNA synthesis inhibition) IC50 (DNA synthesis): >1 µg/mL | RNA (RNA synthesis inhibition) IC50 (RNA synthesis): 0.5 µg/mL | RNAp (RNA polymerase inhibition) IC50 (RNA polymerase): 3 µg/mL

Ecteinascidin 596 [Et 596]
antimicrobial activity against B. subtilis (MIC) (Bacillus subtilis; crude sample, single major peak by FABMS): 0.3 μg/disc

COc1cc2c(cc1OC(C)=O)CCN[C@]21CS[C@@H]2c3c(OC(C)=O)c(C)c4c(c3[C@H](COC1=O)N1[C@@H]2[C@H]2c3c(O)c(OC)c(C)c(Br)c3C[C@@H]([C@@H]1O)N2C)OCO4 [6′-Ac, 15-Br]
DNA (DNA synthesis inhibition) IC50 (DNA synthesis): 0.5 µg/mL | RNAp (RNA polymerase inhibition) IC50 (RNA polymerase): 0.42 µg/mL

COc1cc2c(cc1O)CCNC21CSC2c3c(OC(C)=O)c(C)c4c(c3C(COC1=O)N1C(C(C=O)C=O)C3Cc5cc(C)c(OC)c(O)c5C(C21)N3C)OCO4 (centres unmarked) [Et 815, Ecteinascidin 815]
L1210 IC50 [5]: 25 ng/mL | P388 IC50 [1]: 2.5 ng/mL | A549 IC50 [2]: 5.0 ng/mL | HT29 IC50 [3]: 5.0 ng/mL | CV-1 IC50 [4]: 5.0 ng/mL | DNA (DNA synthesis inhibition) IC50 (DNA synthesis): >1 µg/mL | RNA (RNA synthesis inhibition) IC50 (RNA synthesis): 0.1 µg/mL | B.s. MIC (Bacillus subtilis): 0.75 μg/disc

COc1cc2c(cc1O)CCN[C@]21CS[C@@H]2c3c(OC(C)=O)c(C)c4c(c3[C@H](COC1=O)N1C[C@@H]3Cc5cc(C)c(OC)c(O)c5[C@H]([C@H]21)N3C)OCO4 [Et 745]
P388 IC50 [1]: 10 ng/mL | A549 IC50 [2]: 20 ng/mL | HT29 IC50 [3]: 25 ng/mL | MEL28 IC50 (MEL28 = human melanoma): 50 ng/mL | CV-1 IC50 [4]: 50 ng/mL | DNA (DNA synthesis inhibition) IC50 (DNA synthesis): >1 µg/mL | RNA (RNA synthesis inhibition) IC50 (RNA synthesis): 0.3 µg/mL | B.s. MIC (Bacillus subtilis): 6.50 μg/disc

COc1cc2c(cc1O)CCNC21CSC2c3c(OC(C)=O)c(C)c4c(c3C(COC1=O)N1C(O)C3Cc5cc(C)c(OC)c(O)c5C(C21)N3C=O)OCO4 (centres unmarked) [N—CHO]
RNAp (RNA polymerase inhibition) IC50 (RNA polymerase): 4 µg/mL | B.s. MIC (Bacillus subtilis): 6.60 μg/disc

COc1cc2c(cc1O)CCN[C@]21C[S+]([O-])[C@@H]2c3c(OC(C)=O)c(C)c4c(c3[C@H](COC1=O)N1[C@H]2[C@H]2c3c(cc(C)c(OC)c3O)C[C@@H]([C@H]1O)N2C)OCO4 (some centres unmarked) [Et 759B]
P388 IC50 [1]: 5.0 ng/mL | A549 IC50 [2]: 5.0 ng/mL | HT29 IC50 [3]: 5.0 ng/mL | MEL28 IC50 (MEL28 = human melanoma): 10 ng/mL | CV-1 IC50 [4]: 25 ng/mL | Prot. (protein synthesis inhibition) IC50 (protein synthesis): >1 µg/mL | DNA (DNA synthesis inhibition) IC50 (DNA synthesis): 0.7 µg/mL | RNA (RNA synthesis inhibition) IC50 (RNA synthesis): 0.5 µg/mL | RNAp (RNA polymerase inhibition) IC50 (RNA polymerase): >1 µg/mL | B.s. MIC (Bacillus subtilis): 3.90 μg/disc

COc1cc2c(cc1O)CCNC21CSC2c3c(OC(C)=O)c(C)c4c(c3C(COC1=O)N1CC3Cc5cc(C)c(OC)c(O)c5C(N3)C21)OCO4 (centres unmarked) [Et 731, Ecteinascidin 731]
P388 IC50 [1]: 100 ng/mL | A549 IC50 [2]: 100 ng/mL | HT29 IC50 [3]: 100 ng/mL | MEL28 IC50 (MEL28 = human melanoma): 200 ng/mL | CV-1 IC50 [4]: 200 ng/mL | Prot. (protein synthesis inhibition) IC50 (protein synthesis): >1 µg/mL | B.s. MIC (Bacillus subtilis): 6.20 μg/disc

COc1c(C)cc2c(c1O)[C@H]1N[C@@H](C2)[C@H](O)N2[C@H]1[C@@H]1SC[C@]3(NCCc4c3[nH]c3ccccc43)C(=O)OC[C@H]2c2c3c(c(C)c(OC(C)=O)c21)OCO3 [Et 722]
P388 IC50 [1]: 1.0 ng/mL | A549 IC50 [2]: 1.0 ng/mL | HT29 IC50 [3]: 2.0 ng/mL | MEL28 IC50 (MEL28 = human melanoma): 2.0 ng/mL | CV-1 IC50 [4]: 5.0 ng/mL | Prot. (protein synthesis inhibition) IC50 (protein synthesis): 0.9 µg/mL | DNA (DNA synthesis inhibition) IC50 (DNA synthesis): 0.4 µg/mL | RNA (RNA synthesis inhibition) IC50 (RNA synthesis): 0.1 µg/mL | DNAp (DNA polymerase inhibition) IC50 (DNA polymerase): >1 µg/mL | RNAp (RNA polymerase inhibition) IC50 (RNA polymerase): 0.5 µg/mL | B.s. MIC (Bacillus subtilis): 0.70 μg/disc | efficacy in vivo [6]: promising efficacy in vivo

COc1cc2c(cc1O)CCN[C@]21CS[C@@H]2c3c(OC(C)=O)c(C)c4c(c3[C@H](COC1=O)N1[C@@H]2[C@H]2c3c(cc(C)c(OC)c3O)C[C@@H]([C@@H]1O)N2C)OCO4 [Et 743]
L1210 IC50 [5]: 5 ng/mL | P388 IC50 [1]: 0.2 ng/mL | A549 IC50 [2]: 0.2 ng/mL | HT29 IC50 [3]: 0.5 ng/mL | MEL28 IC50 (MEL28 = human melanoma): 5.0 ng/mL | CV-1 IC50 [4]: 1.0 ng/mL | Prot. (protein synthesis inhibition) IC50 (protein synthesis): >1 µg/mL | DNA (DNA synthesis inhibition) IC50 (DNA synthesis): 0.1 µg/mL | RNA (RNA synthesis inhibition) IC50 (RNA synthesis): 0.03 µg/mL | DNAp (DNA polymerase inhibition) IC50 (DNA polymerase): 2 µg/mL | RNAp (RNA polymerase inhibition) IC50 (RNA polymerase): 0.1 µg/mL | B.s. MIC (Bacillus subtilis): 0.02 μg/disc | efficacy in vivo [6]: promising efficacy in vivo

COc1c(C)cc2c(c1O)C1C3[C@@H]4SCC(=O)C(=O)OC[C@@H](c5c6c(c(C)c(OC(C)=O)c54)OCO6)N3[C@@H](O)[C@H](C2)N1C (some centres unmarked) [Et 594, Ecteinascidin 594]
P388 IC50 [1]: 10 ng/mL | A549 IC50 [2]: 20 ng/mL | HT29 IC50 [3]: 25 ng/mL | MEL28 IC50 (MEL28 = human melanoma): 25 ng/mL | CV-1 IC50 [4]: 25 ng/mL | Prot. (protein synthesis inhibition) IC50 (protein synthesis): 0.8 µg/mL | DNA (DNA synthesis inhibition) IC50 (DNA synthesis): 0.5 µg/mL | RNA (RNA synthesis inhibition) IC50 (RNA synthesis): 0.5 µg/mL | RNAp (RNA polymerase inhibition) IC50 (RNA polymerase): 1.0 µg/mL | B.s. MIC (Bacillus subtilis): 0.37 μg/disc

COc1c(C)cc2c(c1O)[C@@H]1[C@@H]3[C@@H]4SC[C@H](N)C(=O)OC[C@@H](c5c(O)c(OC)c(C)c(OC(C)=O)c54)N3[C@@H](O)[C@@H](C2)N1C [Et 597, Ecteinascidin 597]
P388 IC50 [1]: 2.0 ng/mL | A549 IC50 [2]: 2.0 ng/mL | HT29 IC50 [3]: 2.0 ng/mL | MEL28 IC50 (MEL28 = human melanoma): 2.0 ng/mL | CV-1 IC50 [4]: 2.5 ng/mL | Prot. (protein synthesis inhibition) IC50 (protein synthesis): 0.7 µg/mL | DNA (DNA synthesis inhibition) IC50 (DNA synthesis): 0.08 µg/mL | RNA (RNA synthesis inhibition) IC50 (RNA synthesis): 0.01 µg/mL | RNAp (RNA polymerase inhibition) IC50 (RNA polymerase): 0.25 µg/mL | B.s. MIC (Bacillus subtilis): 0.14 μg/disc | stability in solution (Stability in solution): decomposed slowly in solution

COc1c(C)cc2c(c1O)[C@@H]1[C@@H]3[C@@H]4SC[C@]5(NCCc6c5[nH]c5ccccc65)C(=O)OC[C@@H](c5c6c(c(C)c(OC(C)=O)c54)OCO6)N3[C@@H](O)[C@H](C2)N1C [Et 736]
P388 IC50 [1]: 0.5 ng/mL | A549 IC50 [2]: 1.0 ng/mL | HT29 IC50 [3]: 2.5 ng/mL | MEL28 IC50 (MEL28 = human melanoma): 2.5 ng/mL | CV-1 IC50 [4]: 2.5 ng/mL | Prot. (protein synthesis inhibition) IC50 (protein synthesis): 0.5 µg/mL | DNA (DNA synthesis inhibition) IC50 (DNA synthesis): 0.4 µg/mL | RNA (RNA synthesis inhibition) IC50 (RNA synthesis): 0.1 µg/mL | RNAp (RNA polymerase inhibition) IC50 (RNA polymerase): 0.5 µg/mL | B.s. MIC (Bacillus subtilis): 0.38 μg/disc

COc1c(C)cc2c(c1O)C1NC(C2)C(O)N2C3COC(=O)C(N)CSC(c4c(OC(C)=O)c(C)c(OC)c(O)c43)C12 (centres unmarked) [Et 583, Ecteinascidin 583]
IC50 ([1]; Mus musculus): 0.01 µg/mL (≈ 0.0166 µM) | IC50 [2]: 0.01 µg/mL (≈ 0.0166 µM) | IC50 ([3]; HT-29): 0.01 µg/mL (≈ 0.0166 µM) | IC50 (MEL28 = human melanoma; SK-MEL-28): 5 ng/mL (≈ 0.00831 µM) | IC50 ([4]; Primates): 0.025 µg/mL (≈ 0.0416 µM) | IC50 (protein synthesis; read-out: Prot. (protein synthesis inhibition) IC50): 1 µg/mL (≈ 1.66 µM) | IC50 (DNA synthesis): 1 µg/mL (≈ 1.66 µM) | IC50 (RNA synthesis): 0.4 µg/mL (≈ 0.665 µM) | RNAp (RNA polymerase inhibition) IC50 (RNA polymerase): 0.5 µg/mL | B.s. MIC (Bacillus subtilis): 0.74 μg/disc
